From ChEMBL document CHEMBL1777786, “Synthesis of cholestane saponins as mimics of OSW-1 and their cytotoxic activities” (Bioorg Med Chem Lett, 2011)

What was measured:
Format in all cases: functional, cell-based
A2780 = experiment: Cytotoxicity against human A2780 cells after 72 hrs by MTT assay; conditions: A2780, 72 h
A549 = experiment: Cytotoxicity against human A549 cells after 72 hrs by MTT assay; conditions: A549, 72 h
Bel-7402 = experiment: Cytotoxicity against human Bel7402 cells after 72 hrs by MTT assay; conditions: Bel-7402, 72 h
BGC-823 = experiment: Cytotoxicity against human BGC823 cells after 72 hrs by MTT assay; conditions: BGC-823, 72 h
HCT-8 = experiment: Cytotoxicity against human HCT8 cells after 72 hrs by MTT assay; conditions: HCT-8, 72 h

| SMILES | IC50 (A2780) | IC50 (A549) | IC50 (Bel-7402) | IC50 (BGC-823) | IC50 (HCT-8) |
| --- | --- | --- | --- | --- | --- |
| COc1ccc(C(=O)O[C@H]2[C@H](O[C@@H]3[C@@H](OC(C)=O)[C@H](O[C@H]4C=C5C[C@@H](O)CC[C@]5(C)[C@H]5CC[C@]6(C)[C@@H]([C@H](C)CCC[C@@H](C)CO)CC[C@H]6[C@H]45)OC[C@@H]3O)OC[C@@H](O)[C@@H]2O)cc1 | > 10000 nM | > 10 µM | > 10000 nM | > 10000 nM | > 10 µM |
| COc1ccc(C(=O)O[C@H]2[C@H](O[C@H]3CO[C@@H](O[C@H]4C[C@H]5[C@@H]6CC=C7C[C@@H](O)CC[C@]7(C)[C@H]6CC[C@]5(C)[C@H]4[C@H](C)CCC[C@@H](C)CO)[C@H](OC(C)=O)[C@H]3O)OC[C@@H](O)[C@@H]2O)cc1 | > 10000 nM | > 10 µM | > 10000 nM | > 10000 nM | > 10 µM |
| COc1ccc(C(=O)O[C@H]2[C@H](O[C@H]3CO[C@@H](O[C@H]4C=C5C[C@@H](O)CC[C@]5(C)[C@H]5CC[C@]6(C)[C@@H]([C@H](C)CCC[C@@H](C)CO)CC[C@H]6[C@H]45)[C@H](OC(C)=O)[C@H]3O)OC[C@@H](O)[C@@H]2O)cc1 | > 10000 nM | > 10 µM | > 10000 nM | > 10000 nM | > 10 µM |
| COc1ccc(C(=O)O[C@H]2[C@H](O[C@@H]3[C@@H](OC(C)=O)[C@H](O[C@H]4C=C5C[C@@H](O)CC[C@]5(C)[C@H]5CC[C@]6(C)[C@@H]([C@H](C)CCC[C@@H](C)CO)[C@@H](O)C[C@H]6[C@H]45)OC[C@@H]3O)OC[C@@H](O)[C@@H]2O)cc1 | 1900 nM | 0.087 µM | 50 nM | 78 nM | 0.075 µM |
| CC(=O)O[C@H]1C(=O)[C@@]2(C)[C@H]([C@H](OC(=O)c3ccccc3)[C@]3(O)C[C@H](OC(=O)[C@H](O)[C@@H](NC(=O)c4ccccc4)c4ccccc4)C(C)=C1C3(C)C)[C@]1(OC(C)=O)CO[C@@H]1C[C@@H]2O [PACLITAXEL] | < 1 nM |  | 6 nM | < 1 nM |  |
| COc1ccc(C(=O)O[C@H]2[C@H](O[C@H]3CO[C@@H](O[C@H]4C=C5C[C@@H](O)CC[C@]5(C)[C@H]5CC[C@]6(C)[C@@H]([C@H](C)CCC[C@@H](C)CO)[C@@H](O)C[C@H]6[C@H]45)[C@H](OC(C)=O)[C@H]3O)OC[C@@H](O)[C@@H]2O)cc1 | > 10000 nM | > 10 µM | > 10000 nM | > 10000 nM | > 10 µM |
| COc1ccc(C(=O)O[C@H]2[C@H](O[C@@H]3[C@@H](OC(C)=O)[C@H](O[C@H]4C[C@H]5[C@@H]6CC=C7C[C@@H](O)CC[C@]7(C)[C@H]6CC[C@]5(C)[C@H]4[C@H](C)CCC[C@@H](C)CO)OC[C@@H]3O)OC[C@@H](O)[C@@H]2O)cc1 | 6 nM | 0.0093 µM | 23 nM | 2 nM | 0.07 µM |
